Square brackets hold non-standard residues; d marks the D form. Peptide text beside a SMILES is read from it.
What was measured:
[1] = organism: Homo sapiens; experiment: Selectivity index, ratio of Ki for displacement of [3H]-DAMGO from MOR (unknown origin) expressed in CHO cells to Ki for displacement of [3H]-Diprenorphine from KOR (unknown origin) expressed in CHO cells; assay type: cell-based
[2] = biological target: Mu-type opioid receptor (Homo sapiens, UniProt P35372); experiment: Displacement of [3H]-DAMGO from mu opioid receptor (unknown origin) expressed in CHO cells incubated for 90 mins in presence of peptidase inhibitors; assay type: cell-based
[3] = biological target: T1, Kappa-type opioid receptor (Homo sapiens, UniProt P41145); experiment: Displacement of [3H]-Diprenorphine from kappa opiod receptor (unknown origin) expressed in CHO cells incubated for 90 mins in presence of peptidase inhibitors; assay type: cell-based
[4] = biological target: T1, Kappa-type opioid receptor; experiment: Antagonist activity at kappa opioid receptor (unkown origin) expressed in CHO cell membranes assessed as inhibition of Dyn A-(1-13)NH2 stimulated [35S]GTPgammaS binding incubated for 90 mins by liquid scintillation counting method; assay type: functional; conditions: Membrane, filed as antagonist

T1 sequence (P41145 whole entry): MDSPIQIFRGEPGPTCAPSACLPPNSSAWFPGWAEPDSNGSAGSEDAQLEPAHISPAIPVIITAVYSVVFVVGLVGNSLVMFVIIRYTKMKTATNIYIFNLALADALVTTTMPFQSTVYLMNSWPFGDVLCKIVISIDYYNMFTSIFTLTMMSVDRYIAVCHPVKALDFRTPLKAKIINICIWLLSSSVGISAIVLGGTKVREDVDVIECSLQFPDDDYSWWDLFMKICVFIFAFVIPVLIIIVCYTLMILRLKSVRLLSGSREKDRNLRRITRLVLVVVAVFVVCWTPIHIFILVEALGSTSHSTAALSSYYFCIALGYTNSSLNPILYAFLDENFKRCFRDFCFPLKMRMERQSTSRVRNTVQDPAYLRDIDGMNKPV
Chain of Mu-type opioid receptor (P35372 whole entry): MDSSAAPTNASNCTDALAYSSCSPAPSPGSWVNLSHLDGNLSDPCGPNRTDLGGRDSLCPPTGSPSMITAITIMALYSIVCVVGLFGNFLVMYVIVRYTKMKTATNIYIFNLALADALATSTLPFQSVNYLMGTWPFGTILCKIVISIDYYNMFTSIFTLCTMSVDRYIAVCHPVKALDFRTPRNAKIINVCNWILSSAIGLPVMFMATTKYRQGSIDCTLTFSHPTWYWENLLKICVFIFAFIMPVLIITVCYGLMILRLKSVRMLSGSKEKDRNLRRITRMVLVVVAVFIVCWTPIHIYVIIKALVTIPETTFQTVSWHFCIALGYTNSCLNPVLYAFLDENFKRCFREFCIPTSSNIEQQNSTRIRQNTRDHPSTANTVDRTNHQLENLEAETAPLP

Row | SMILES | Ratio Ki [1] | Ki [2] [nM] | Ki [3] [nM] | Kb [4] [nM]
1 | CC(=O)N[C@H]1Cc2cccc(c2)OC/C=C/COc2ccc(cc2)C[C@@H](C(=O)N[C@@H](Cc2ccccc2)C(=O)N[C@@H](CCCNC(=N)N)C(=O)N[C@@H](CC(C)C)C(=O)N[C@@H](CCCNC(=N)N)C(=O)N[C@@H](CCCNC(=N)N)C(=O)N[C@H](C)C(=O)N[C@@H](CCCNC(=N)N)C(=O)N2CCC[C@H]2C(=O)N[C@@H](CCCCN)C(N)=O)NC1=O | 22 | 657 | 29.2 | 
2 | C=CCOc1ccc(C[C@H](NC(=O)[C@H](Cc2ccccc2)NC(C)=O)C(=O)N[C@@H](Cc2cccc(OCC=C)c2)C(=O)N[C@@H](CCCNC(=N)N)C(=O)N[C@@H](CC(C)C)C(=O)N[C@@H](CCCNC(=N)N)C(=O)N[C@@H](CCCNC(=N)N)C(=O)N[C@H](C)C(=O)N[C@@H](CCCNC(=N)N)C(=O)N2CCC[C@H]2C(=O)N[C@@H](CCCCN)C(N)=O)cc1 | 118 | 1380 | 11.7 | 
3 | CC(=O)N[C@H]1Cc2ccc(cc2)OC/C=C/COc2cccc(c2)C[C@@H](C(=O)N[C@@H](Cc2ccccc2)C(=O)N[C@@H](CCCNC(=N)N)C(=O)N[C@@H](CC(C)C)C(=O)N[C@@H](CCCNC(=N)N)C(=O)N[C@@H](CCCNC(=N)N)C(=O)N[C@H](C)C(=O)N[C@@H](CCCNC(=N)N)C(=O)N2CCC[C@H]2C(=O)N[C@@H](CCCCN)C(N)=O)NC1=O | 9 | 501 | 56.7 | 
4 | CC(=O)N[C@@H](Cc1ccccc1)C(=O)N[C@H]1Cc2cccc(c2)OC/C=C/COc2ccc(cc2)C[C@@H](C(=O)N[C@@H](CCCNC(=N)N)C(=O)N[C@@H](CC(C)C)C(=O)N[C@@H](CCCNC(=N)N)C(=O)N[C@@H](CCCNC(=N)N)C(=O)N[C@H](C)C(=O)N[C@@H](CCCNC(=N)N)C(=O)N2CCC[C@H]2C(=O)N[C@@H](CCCCN)C(N)=O)NC1=O | 50 | 1960 | 39.2 | 
5 | C=CCOc1ccc(C[C@H](NC(C)=O)C(=O)N[C@@H](Cc2ccc(OCC=C)cc2)C(=O)N[C@@H](Cc2ccccc2)C(=O)N[C@@H](CCCNC(=N)N)C(=O)N[C@@H](CC(C)C)C(=O)N[C@@H](CCCNC(=N)N)C(=O)N[C@@H](CCCNC(=N)N)C(=O)N[C@H](C)C(=O)N[C@@H](CCCNC(=N)N)C(=O)N2CCC[C@H]2C(=O)N[C@@H](CCCCN)C(N)=O)cc1 | 18 | 221 | 12.1 | 
6 | CC(=O)N[C@@H](Cc1ccccc1)C(=O)N[C@H]1Cc2ccc(cc2)OC/C=C/COc2ccc(cc2)C[C@@H](C(=O)N[C@@H](CCCNC(=N)N)C(=O)N[C@@H](CC(C)C)C(=O)N[C@@H](CCCNC(=N)N)C(=O)N[C@@H](CCCNC(=N)N)C(=O)N[C@H](C)C(=O)N[C@@H](CCCNC(=N)N)C(=O)N2CCC[C@H]2C(=O)N[C@@H](CCCCN)C(N)=O)NC1=O | 93 | 1370 | 14.7 | 15
7 | CC(=O)N[C@@H](Cc1ccccc1)C(=O)N[C@H]1Cc2cccc(c2)OC/C=C\COc2cccc(c2)C[C@@H](C(=O)N[C@@H](CCCNC(=N)N)C(=O)N[C@@H](CC(C)C)C(=O)N[C@@H](CCCNC(=N)N)C(=O)N[C@@H](CCCNC(=N)N)C(=O)N[C@H](C)C(=O)N[C@@H](CCCNC(=N)N)C(=O)N2CCC[C@H]2C(=O)N[C@@H](CCCCN)C(N)=O)NC1=O | 54 | 828 | 15.4 | 
8 | C=CCOc1ccc(C[C@H](NC(C)=O)C(=O)N[C@@H](Cc2cccc(OCC=C)c2)C(=O)N[C@@H](Cc2ccccc2)C(=O)N[C@@H](CCCNC(=N)N)C(=O)N[C@@H](CC(C)C)C(=O)N[C@@H](CCCNC(=N)N)C(=O)N[C@@H](CCCNC(=N)N)C(=O)N[C@H](C)C(=O)N[C@@H](CCCNC(=N)N)C(=O)N2CCC[C@H]2C(=O)N[C@@H](CCCCN)C(N)=O)cc1 | 8 | 490 | 62.2 | 
9 | C=CCOc1ccc(C[C@H](NC(=O)[C@H](Cc2ccccc2)NC(C)=O)C(=O)N[C@@H](Cc2ccc(OCC=C)cc2)C(=O)N[C@@H](CCCNC(=N)N)C(=O)N[C@@H](CC(C)C)C(=O)N[C@@H](CCCNC(=N)N)C(=O)N[C@@H](CCCNC(=N)N)C(=O)N[C@H](C)C(=O)N[C@@H](CCCNC(=N)N)C(=O)N2CCC[C@H]2C(=O)N[C@@H](CCCCN)C(N)=O)cc1 | 65 | 1220 | 18.9 | 
10 | C=CCOc1cccc(C[C@H](NC(=O)[C@H](Cc2ccccc2)NC(C)=O)C(=O)N[C@@H](Cc2cccc(OCC=C)c2)C(=O)N[C@@H](CCCNC(=N)N)C(=O)N[C@@H](CC(C)C)C(=O)N[C@@H](CCCNC(=N)N)C(=O)N[C@@H](CCCNC(=N)N)C(=O)N[C@H](C)C(=O)N[C@@H](CCCNC(=N)N)C(=O)N2CCC[C@H]2C(=O)N[C@@H](CCCCN)C(N)=O)c1 | 255 | 838 | 3.3 | 
11 | CC(=O)N[C@H]1Cc2ccc(cc2)OC/C=C/COc2ccc(cc2)C[C@@H](C(=O)N[C@@H](Cc2ccccc2)C(=O)N[C@@H](CCCNC(=N)N)C(=O)N[C@@H](CC(C)C)C(=O)N[C@@H](CCCNC(=N)N)C(=O)N[C@@H](CCCNC(=N)N)C(=O)N[C@H](C)C(=O)N[C@@H](CCCNC(=N)N)C(=O)N2CCC[C@H]2C(=O)N[C@@H](CCCCN)C(N)=O)NC1=O | 123 | 1430 | 11.7 | 288
12 | CC(=O)N[C@@H](Cc1ccccc1)C(=O)N[C@@H](Cc1ccccc1)C(=O)N[C@@H](Cc1ccccc1)C(=O)N[C@@H](CCCNC(=N)N)C(=O)N[C@@H](CC(C)C)C(=O)N[C@@H](CCCNC(=N)N)C(=O)N[C@@H](CCCNC(=N)N)C(=O)N[C@H](C)C(=O)N[C@@H](CCCNC(=N)N)C(=O)N1CCC[C@H]1C(=O)N[C@@H](CCCCN)C(N)=O (Ac-FFFRLRR[dA]RPK-NH2) | 174 | 1740 |  | 
13 | C=CCOc1ccc(C[C@H](NC(=O)[C@H](Cc2cccc(OCC=C)c2)NC(=O)[C@H](Cc2ccccc2)NC(C)=O)C(=O)N[C@@H](CCCNC(=N)N)C(=O)N[C@@H](CC(C)C)C(=O)N[C@@H](CCCNC(=N)N)C(=O)N[C@@H](CCCNC(=N)N)C(=O)N[C@H](C)C(=O)N[C@@H](CCCNC(=N)N)C(=O)N2CCC[C@H]2C(=O)N[C@@H](CCCCN)C(N)=O)cc1 | 32 | 1330 | 41.2 | 
14 | C=CCOc1ccc(C[C@H](NC(=O)[C@H](Cc2cccc(OCC=C)c2)NC(C)=O)C(=O)N[C@@H](Cc2ccccc2)C(=O)N[C@@H](CCCNC(=N)N)C(=O)N[C@@H](CC(C)C)C(=O)N[C@@H](CCCNC(=N)N)C(=O)N[C@@H](CCCNC(=N)N)C(=O)N[C@H](C)C(=O)N[C@@H](CCCNC(=N)N)C(=O)N2CCC[C@H]2C(=O)N[C@@H](CCCCN)C(N)=O)cc1 | 11 | 478 | 43.2 | 
15 | CC(=O)N[C@@H](Cc1ccccc1)C(=O)N[C@H]1Cc2ccc(cc2)OC/C=C/COc2cccc(c2)C[C@@H](C(=O)N[C@@H](CCCNC(=N)N)C(=O)N[C@@H](CC(C)C)C(=O)N[C@@H](CCCNC(=N)N)C(=O)N[C@@H](CCCNC(=N)N)C(=O)N[C@H](C)C(=O)N[C@@H](CCCNC(=N)N)C(=O)N2CCC[C@H]2C(=O)N[C@@H](CCCCN)C(N)=O)NC1=O | 31 | 607 | 19.8 | 
16 | CC(=O)N[C@H]1Cc2cccc(c2)OC/C=C/COc2cccc(c2)C[C@@H](C(=O)N[C@@H](Cc2ccccc2)C(=O)N[C@@H](CCCNC(=N)N)C(=O)N[C@@H](CC(C)C)C(=O)N[C@@H](CCCNC(=N)N)C(=O)N[C@@H](CCCNC(=N)N)C(=O)N[C@H](C)C(=O)N[C@@H](CCCNC(=N)N)C(=O)N2CCC[C@H]2C(=O)N[C@@H](CCCCN)C(N)=O)NC1=O | 24 | 1630 | 68.2 | 
17 | C=CCOc1cccc(C[C@H](NC(C)=O)C(=O)N[C@@H](Cc2cccc(OCC=C)c2)C(=O)N[C@@H](Cc2ccccc2)C(=O)N[C@@H](CCCNC(=N)N)C(=O)N[C@@H](CC(C)C)C(=O)N[C@@H](CCCNC(=N)N)C(=O)N[C@@H](CCCNC(=N)N)C(=O)N[C@H](C)C(=O)N[C@@H](CCCNC(=N)N)C(=O)N2CCC[C@H]2C(=O)N[C@@H](CCCCN)C(N)=O)c1 | 7 | 491 | 65.8 | 

From ChEMBL document CHEMBL5055617, “Conformational Constraint between Aromatic Residue Side Chains in the "Message" Sequence of the Peptide Arodyn Using Ring Closing Metathesis Results in a Potent and Selective Kappa Opioid Receptor Antagonist” (J Med Chem, 2021)
